Experiments:
[1] = biological target: T1, recombinant human GABABR1a2 (Homo sapiens, UniProt Q9UBS5); assay: Ca2+ assay for determining GABAB receptor agonist activity; type: cell-based; details: cells expressing recombinant human GABABR1a2
T1 construct: expressed in transfected cells; host or cells: HEK cells

GABAB receptor = GABAB receptor (Homo sapiens, UniProt Q9UBS5); assay: GABAB receptor agonist or partial agonist activity by binding, electrophysiology, cAMP and/or Ca2+ assay methods (Examples 83-86); type: cell-based
Chain of GABAB receptor (Q9UBS5 20-961): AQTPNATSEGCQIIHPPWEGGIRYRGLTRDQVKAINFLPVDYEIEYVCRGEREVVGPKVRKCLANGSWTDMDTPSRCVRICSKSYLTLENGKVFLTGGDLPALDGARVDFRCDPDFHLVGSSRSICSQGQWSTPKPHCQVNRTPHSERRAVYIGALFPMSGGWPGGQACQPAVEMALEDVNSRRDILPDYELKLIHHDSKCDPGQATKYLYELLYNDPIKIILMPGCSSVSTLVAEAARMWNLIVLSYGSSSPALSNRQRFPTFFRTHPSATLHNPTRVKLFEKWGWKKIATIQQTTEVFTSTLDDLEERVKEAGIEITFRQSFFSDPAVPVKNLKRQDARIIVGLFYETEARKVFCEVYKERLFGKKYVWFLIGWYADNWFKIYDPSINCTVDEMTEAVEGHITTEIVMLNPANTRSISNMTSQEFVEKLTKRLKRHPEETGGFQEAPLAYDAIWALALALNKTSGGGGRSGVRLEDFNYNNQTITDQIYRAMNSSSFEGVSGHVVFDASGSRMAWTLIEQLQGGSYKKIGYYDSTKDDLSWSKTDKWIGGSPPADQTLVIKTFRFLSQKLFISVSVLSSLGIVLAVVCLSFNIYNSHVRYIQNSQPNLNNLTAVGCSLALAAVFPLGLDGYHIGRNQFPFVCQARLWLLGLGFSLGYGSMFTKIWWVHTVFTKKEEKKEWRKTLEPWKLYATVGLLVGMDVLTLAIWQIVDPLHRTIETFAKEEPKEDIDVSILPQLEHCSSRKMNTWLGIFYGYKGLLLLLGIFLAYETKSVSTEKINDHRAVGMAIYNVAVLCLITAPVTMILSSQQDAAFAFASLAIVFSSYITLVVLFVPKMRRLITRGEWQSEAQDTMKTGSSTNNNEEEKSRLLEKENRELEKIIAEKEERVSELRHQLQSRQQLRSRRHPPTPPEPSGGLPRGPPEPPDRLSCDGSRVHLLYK
Chain of GABAB receptor (O75899 42-941 partner): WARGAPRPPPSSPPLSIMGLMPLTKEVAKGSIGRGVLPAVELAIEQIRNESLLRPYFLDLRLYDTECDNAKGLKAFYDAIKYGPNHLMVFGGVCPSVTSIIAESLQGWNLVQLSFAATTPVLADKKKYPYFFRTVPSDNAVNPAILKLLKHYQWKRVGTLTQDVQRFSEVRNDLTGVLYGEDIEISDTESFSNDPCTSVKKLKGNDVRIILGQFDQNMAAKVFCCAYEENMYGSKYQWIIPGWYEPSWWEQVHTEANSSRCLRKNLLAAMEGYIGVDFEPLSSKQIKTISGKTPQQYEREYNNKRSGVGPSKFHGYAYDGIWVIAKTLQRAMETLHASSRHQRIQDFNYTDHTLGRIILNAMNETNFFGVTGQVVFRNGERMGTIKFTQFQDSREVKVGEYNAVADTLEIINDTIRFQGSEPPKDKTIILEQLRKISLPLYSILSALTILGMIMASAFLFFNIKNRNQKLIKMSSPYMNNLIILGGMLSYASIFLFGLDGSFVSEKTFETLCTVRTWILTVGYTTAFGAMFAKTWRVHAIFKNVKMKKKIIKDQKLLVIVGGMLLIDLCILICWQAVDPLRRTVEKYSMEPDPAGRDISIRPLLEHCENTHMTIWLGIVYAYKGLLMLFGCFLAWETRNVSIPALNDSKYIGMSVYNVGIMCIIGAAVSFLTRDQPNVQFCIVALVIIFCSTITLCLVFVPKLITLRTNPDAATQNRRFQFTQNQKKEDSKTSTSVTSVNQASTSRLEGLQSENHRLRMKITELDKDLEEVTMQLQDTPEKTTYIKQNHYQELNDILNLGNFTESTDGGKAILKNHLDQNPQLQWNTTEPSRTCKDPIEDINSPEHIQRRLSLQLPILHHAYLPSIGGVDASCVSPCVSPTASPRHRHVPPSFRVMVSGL
Method in brief: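 Binding: rat cortex membranes in 50 mM Tris pH 7.4 with 100 μM isoguvacine were preincubated 10 min at RT with compound, then radiolabeled CGP54626 (1-10 nM) was added; filtered and scintillation-counted. cAMP: GABAB R1a2 HEK cells, 1 h RT with 100 μM forskolin, chemiluminescence.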

T1 sequence (Q9UBS5 15-961 limits assumed): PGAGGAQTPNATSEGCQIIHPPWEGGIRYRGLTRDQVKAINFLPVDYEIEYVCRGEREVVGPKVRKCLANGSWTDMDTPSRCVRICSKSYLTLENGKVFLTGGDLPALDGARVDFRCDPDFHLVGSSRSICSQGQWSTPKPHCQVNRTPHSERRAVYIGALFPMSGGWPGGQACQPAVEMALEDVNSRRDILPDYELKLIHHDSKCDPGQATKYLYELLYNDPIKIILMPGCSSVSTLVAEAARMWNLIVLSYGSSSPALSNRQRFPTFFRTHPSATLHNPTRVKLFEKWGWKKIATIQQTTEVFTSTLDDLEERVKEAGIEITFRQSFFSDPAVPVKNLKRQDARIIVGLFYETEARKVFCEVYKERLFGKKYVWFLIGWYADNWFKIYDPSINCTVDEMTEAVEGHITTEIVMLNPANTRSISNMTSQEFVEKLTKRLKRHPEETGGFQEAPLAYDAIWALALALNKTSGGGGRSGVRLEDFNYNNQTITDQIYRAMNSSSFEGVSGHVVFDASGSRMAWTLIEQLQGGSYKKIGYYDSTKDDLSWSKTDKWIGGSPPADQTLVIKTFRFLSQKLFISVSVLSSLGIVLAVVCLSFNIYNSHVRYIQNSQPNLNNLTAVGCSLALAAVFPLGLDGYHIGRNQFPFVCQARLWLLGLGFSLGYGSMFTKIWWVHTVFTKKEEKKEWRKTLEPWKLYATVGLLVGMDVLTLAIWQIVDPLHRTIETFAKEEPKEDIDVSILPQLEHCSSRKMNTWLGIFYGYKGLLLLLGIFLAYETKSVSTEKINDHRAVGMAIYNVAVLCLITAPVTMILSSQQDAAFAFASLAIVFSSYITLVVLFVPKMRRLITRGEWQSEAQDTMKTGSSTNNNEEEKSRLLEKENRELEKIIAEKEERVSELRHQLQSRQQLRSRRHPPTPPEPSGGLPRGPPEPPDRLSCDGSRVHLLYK
T1 sequence (O75899 42-941 partner): as the sequence (O75899 42-941 partner) above

EC50 [1]: < 700 nM
GABAB receptor agonist or partial agonist activity (GABAB receptor): agonist or partial agonist activity
Structure (SMILES): Cl.NC[C@H](CC(=O)O)c1ccc(Cl)c(OCc2ccncc2)c1 [Example 68, (3R)-4-Amino-3-[4-chloro-3-(4-pyridylmethoxy)phenyl]butanoic acid hydrochloride]

Source: patent US8344028B2, “Gamma-amino-butyric acid derivatives as GABAB receptor ligands” (XenoPort, Inc., priority 2009, dated 2013)
